Results as given in patent US6229029A, “11β-aryl substituted 14,17-ethanoestratriens, method for the production of these compounds and their use in the production of medicaments” (Schering Aktiengesellschaft, priority 1997, dated 2001).

How the values were obtained:
[1] = system: bone (distal femur / proximal tibia) of ovariectomized rats; assay: Bone studies in ovariectomized rats: bone density by pQCT; format: in vivo, rat; conditions: for % of Action of E2 (bone density tibia) / Bone Density Tibia: Table 7, proximal tibia
[2] = system: trabecular bone (proximal tibia) of ovariectomized rats; assay: Bone studies in ovariectomized rats: trabecular bone surface area (TB/TV), histological, proximal tibia; format: in vivo, rat; conditions: 28 days
Protocol: 3-month-old female rats are ovariectomized and treated once daily with the test compound immediately after the operation for 28 days. The administration is done subcutaneously in castor oil/benzyl benzoate or arachis oil/ethanol. The animals are sacrificed on the day after the last administration, and femurs, tibiae and uteri are removed. The uteri are weighed, fixed and worked up for histological studies. The determination of the bone density is carried out ex vivo on prepared long bones with use of pQCT (Quantitative Computer Tomography). The measurements are performed at a distance of 5-7 mm from the ball of the joint on the distal femur or the proximal tibia.
As an alternative, the action on the bone is determined by measuring the trabecular bone surface area of the secondary spongiosa in histological preparations of the distal femur or the proximal tibia. The result is expressed as the proportion, in percent, of the trabecular bone surface area in the measured total bone surface area ([…]). The bone density that is measured with use of QCT and the trabecular bone surface area that is determined in the histological section correlate well to one another. A comparison of the two measurement variables is therefore permissible.
About 50% of the bone density of the animals is lost by the ovariectomy. […] In Table 4 and FIG. 2, the results of this test for doses of 0.1-100 μg/animal/day are presented. The bone density was measured on the distal femur; for comparison, the trabecular bone surface area in the proximal tibia was measured. The data that are contained in Table 4 mean specifically:
TB/TV trabecular bone surface area/total bone surface area; histologically determined
For compound B according to the invention, their bone-protecting action was also determined (Table 6). For this purpose, the parameter of TB/TV was determined, which, however, with respect to the informational value for the bone-protecting activity correlates well to the parameter of BMD-qCT that is determined for compounds A and V. This can be ascertained from Table 4; both parameters were determined for compound A.

estrogen receptors = biological target: T1, estrogen receptors (Homo sapiens, UniProt P03372); assay: Transactivation assay in HeLa cells (partial estrogenic action, rPR-TK); format: cell-based; conditions: rPR-TK reporter, read-out: Agonism HELA (rPR-TK)
T1 construct: expressed in transfected cells; host or cells: HeLa cells
Protocol: The partial estrogenic action was also determined by transactivation assays. HeLa cells were […] with estrogen receptors and a reporter gene, which consists of the estrogen-response element of the progesterone receptor and the CAT-gene. The test was performed as described: Savouret et al., EMBO J. 10, 1875-1883 (1991).

uterus of infant rats [3] = assay: Uterus growth test on infant rats (estrogenic action); format: in vivo, rat; conditions: for Epithelial Height % E2 / Uterus Weight % E2: 3 days, infant rats; for estrogenic action in the uterus (in words): uterus growth test
Description: (§1) The influence of the compounds according to the invention on the uterus was examined in the uterus growth test (estrogenic action) and in the anti-uterus growth test (antiestrogenic action), both performed on infant rats.
In infant animals, both uterus and vagina show one of the estrogenic activity-dependent weight increases in their treatment with an estrogenically active substance. In the uterus, under estrogenic action, moreover, it results in a proliferation and height increase of the luminal epithelium.
Immature, normal rats (body weight 40-50 g) receive the substance s.c. over 3 days (d1-d3). On day 4 (d4), the animals are sacrificed with CO2. The uteri are prepared outside and weighed. A piece of the uterus, preferably a uterine horn, is set in formaldehyde for the histological evaluation and embedded in paraffin. The stimulation of the organ weights (relative to mg/100 g of body weight) and the epithelial height are indicated in percentage stimulation in comparison to the reference compound 17β-estradiol. (Substitution dose E2 0.3 μg/animal).

human estrogen receptor = biological target: T2, human estrogen receptor (Homo sapiens, UniProt P03372); assay: Transactivation assay in HeLa cells (antiestrogenic action, vit-TK-CAT reporter); format: cell-based; conditions: in the presence of 0.1 nM estradiol, read-out: Antagonism IC50, HELA
T2 construct: expressed in transfected cells; host or cells: HeLa cells
T2 sequence (P03372 1-595): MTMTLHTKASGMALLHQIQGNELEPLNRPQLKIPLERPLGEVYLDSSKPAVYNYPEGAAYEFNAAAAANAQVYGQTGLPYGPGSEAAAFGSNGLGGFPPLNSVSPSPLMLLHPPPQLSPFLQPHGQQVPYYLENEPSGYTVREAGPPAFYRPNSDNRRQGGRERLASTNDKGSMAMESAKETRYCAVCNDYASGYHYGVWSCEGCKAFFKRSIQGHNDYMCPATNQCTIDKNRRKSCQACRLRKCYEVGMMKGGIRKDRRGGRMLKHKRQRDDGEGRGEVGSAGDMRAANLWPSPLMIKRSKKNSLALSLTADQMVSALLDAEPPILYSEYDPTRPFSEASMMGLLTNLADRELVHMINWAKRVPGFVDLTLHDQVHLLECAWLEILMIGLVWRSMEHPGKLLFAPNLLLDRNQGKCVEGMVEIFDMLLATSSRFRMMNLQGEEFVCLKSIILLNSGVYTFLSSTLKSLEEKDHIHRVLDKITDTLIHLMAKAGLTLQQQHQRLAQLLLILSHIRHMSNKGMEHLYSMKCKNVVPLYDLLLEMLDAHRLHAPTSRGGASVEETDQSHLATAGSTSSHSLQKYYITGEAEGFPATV

bone / uterus of rats = assay: Dissociation of bone action/uterus action (FIG. 7); format: in vivo, rat; conditions: bone action vs uterus epithelial height, relative to 17β-estradiol
Description: There, for compounds A, B and V, their bone-protecting actions are compared to the action of estrogen on the uterus (parameter: uterus epithelial height) as a function of dosage, in each case relative to the action of 17β-estradiol.

uterus of infant rats [4] = assay: Anti-uterus growth test in infant rats (antiestrogenic action); format: in vivo, rat; conditions: with 0.3 μg/animal/day 17β-estradiol
Description: as §1
The uterus of infant estrogen-substituted rats can be used as a test model to detect a direct action of substances with antiestrogenic properties. The parameter of the estrogenic action is the uterus growth that is induced by estradiol in infant rats and that is inhibited by simultaneous administration of a substance with antiestrogenic action.
The test substances are treated s.c. on 3 successive days (d1-d3) in combination with a substitution dose of 0.3 μg/animal/day of 17β-estradiol. As a positive control, 17β-estradiol alone is used; the vehicle group is used as a negative control. On day 4 (d4), the animals are sacrificed, uteri and vaginae are prepared outside and weighed. The organ weights are converted into mg/100 g of body weight, and then the mean and the standard deviation for each dosage are calculated. The inhibition of the uterus or vaginal growth that is induced by 17β-estradiol is indicated in % as inhibition.

[5] = Table 4, distal femur, 0.3 μg/animal/day s.c., 28 days
[6] = Table 5, proximal tibia, 0.3 μg/animal/day s.c., 28 days
[7] = 0.3 μg/animal/day s.c., 28 days
[8] = Table 6, tibia, 0.3 μg/animal/day s.c.
[9] = Table 6, tibia, 1 μg/animal/day s.c.
[10] = Table 6, tibia, 10 μg/animal/day s.c.
[11] = Table 6, tibia, 100 μg/animal/day s.c.
[12] = 100 μg/animal/day s.c., 28 days
[13] = 250 μg/animal/day s.c., 28 days

## C[C@]12CC[C@@H]3c4ccc(O)cc4CC[C@H]3[C@@H]1CC[C@@H]2O [17β-estradiol, reference compound]
[1]; [5]
  % of Action of E2 (bone density femur): 100%
  Bone Density Femur: 361.7 mg Ca/ccm
[1]; [6]
  % of Action of E2 (bone density): 100%
  Bone Density: 375.2 mg Ca/ccm
[1]; [7]
  % of Action of E2 (bone density tibia): 100%
  Bone Density Tibia: 402.9 mg Ca/ccm
[2]; Table 4, proximal tibia, 0.3 μg/animal/day s.c.
  TB/TV (Tibia): 34.0%
[2]; [8]
  % of Action of E2 (TB/TV): 100%
  TB/TV (Tibia): 26.0%

## C[C@]12C[C@H](c3ccc(OCCCCC[S+]([O-])Cc4ccccn4)cc3)[C@@H]3c4ccc(O)cc4CC[C@H]3[C@]13CC[C@@]2(O)CC3 (stereo partly drawn) [Compound B, 14α,17α-ethano-11β-{4-[5-(2-pyridinomethylsulfinyl)pentyloxy]phenyl}-1,3,5(10)-estratriene-3,17β-diol]
Estrogen receptors
  Emax: 50%
Uterus of infant rats [3]; 0.01 mg/kg s.c.
  Epithelial Height % E2: 4 % E2
  Uterus Weight % E2: 3 % E2
Uterus of infant rats [3]; 0.1 mg/kg s.c.
  Epithelial Height % E2: 19 % E2
  Uterus Weight % E2: 31 % E2
Uterus of infant rats [3]; 1 mg/kg s.c.
  Epithelial Height % E2: 18 % E2
  Uterus Weight % E2: 14 % E2
Uterus of infant rats [3]; 10 mg/kg s.c.
  Epithelial Height % E2: 13 % E2
  Uterus Weight % E2: 6 % E2
Uterus of infant rats [3]; s.c., in the considered dose range, vs compound V
  estrogenic activity relative to compound V (in words): approximately half as strongly estrogenically active
Uterus of infant rats [3]; s.c.
  estrogenic action in the uterus (in words): low estrogenic action
[2]; [9]
  % of Action of E2 (TB/TV): 52%
  TB/TV (Tibia): 19.6%
[2]; [10]
  % of Action of E2 (TB/TV): 47%
  TB/TV (Tibia): 18.9%
[2]; [11]
  % of Action of E2 (TB/TV): 45%
  TB/TV (Tibia): 18.6%
Human estrogen receptor
  IC50: 0.3 nM
Bone / uterus of rats
  dissociation of bone-protecting action from estrogen action on the uterus (in words): considerably dissociated
Uterus of infant rats [4]; 0.1 mg/kg s.c.
  Uterus Weight % of Inhibition: 32%
Uterus of infant rats [4]; 1 mg/kg s.c.
  Uterus Weight % of Inhibition: 83%
Uterus of infant rats [4]; 10 mg/kg s.c.
  Uterus Weight % of Inhibition: 100%

## C[C@]12C[C@H](c3ccc(OCCCCC[S+]([O-])Cc4ccccn4)cc3)[C@@H]3c4ccc(O)cc4CC[C@H]3[C@@H]1CC[C@@H]2O (stereo partly drawn) [Compound V, reference compound]
[1]; 10 μg/animal/day s.c., 28 days
  % of Action of E2 (bone density tibia): 40%
  Bone Density Tibia: 337.3 mg Ca/ccm
[1]; [12]
  % of Action of E2 (bone density tibia): 34.4%
  Bone Density Tibia: 331.2 mg Ca/ccm
[1]; [13]
  % of Action of E2 (bone density tibia): 74%
  Bone Density Tibia: 374.3 mg Ca/ccm
[1]; proximal tibia, s.c.
  dose with which an action of about 80% of 17β-estradiol on trabecular bone is achieved: 250 μg/animal/day
Estrogen receptors
  Emax: 37%
Uterus of infant rats [3]; 0.03 mg/kg s.c.
  Epithelial Height % E2: 18 % E2
  Uterus Weight % E2: 28 % E2
Uterus of infant rats [3]; 0.3 mg/kg s.c.
  Epithelial Height % E2: 33 % E2
  Uterus Weight % E2: 32 % E2
Uterus of infant rats [3]; 3 mg/kg s.c.
  Epithelial Height % E2: 27 % E2
  Uterus Weight % E2: 19 % E2
Uterus of infant rats [3]; s.c.
  estrogenic action in the uterus (in words): low estrogenic action
Bone / uterus of rats
  dissociation of bone-protecting action from estrogen action on the uterus (in words): the two curves coincide
Uterus of infant rats [4]; 0.3 mg/kg s.c.
  Uterus Weight % of Inhibition: 57%
